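Five concentrations, 48 hours, 96-well plates. GI50 is the concentration that inhibits growth by half.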 Active and inactive are the calls of the source. No stated cut-off is given here; in the data, active = GI50 up to about 1.1 µM and inactive = higher.
Assays:
Test in all cases: DTP human tumour cell line panel, 48 h
[1] = tested on: HT-29
[2] = tested on: IGROV-1
[3] = tested on: DU-145
[4] = tested on: MCF7
[5] = tested on: SW-620
[6] = tested on: UACC-62
[7] = tested on: LOX IMVI
[8] = tested on: HCT-116
[9] = tested on: SK-OV-3
[10] = tested on: COLO 205
[11] = tested on: MDA-N
[12] = tested on: RXF 393
[13] = tested on: OVCAR-8
[14] = tested on: MOLT-4
[15] = tested on: NCI-H460
[16] = tested on: UACC-257
[17] = tested on: TK-10
[18] = tested on: KM12
[19] = tested on: HOP-92
[20] = tested on: HL-60
[21] = tested on: HOP-62
[22] = tested on: SK-MEL-5
[23] = tested on: PC-3
[24] = tested on: CCRF-CEM
[25] = tested on: EKVX
[26] = tested on: HCC 2998
[27] = tested on: NCI/ADR-RES
[28] = tested on: SNB-75
[29] = tested on: OVCAR-3
[30] = tested on: HCT-15
[31] = tested on: U-251
[32] = tested on: SR
[33] = tested on: 786-0
[34] = tested on: SN12C
[35] = tested on: M14
[36] = tested on: OVCAR-5
[37] = tested on: SNB-19
[38] = tested on: NCI-H23
[39] = tested on: Hs-578T
[40] = tested on: RPMI-8226
[41] = tested on: SF-295
[42] = tested on: K562
[43] = tested on: SK-MEL-28
[44] = tested on: OVCAR-4
[45] = tested on: NCI-H226
[46] = tested on: MDA-MB-435
[47] = tested on: CAKI-1
[48] = tested on: SK-MEL-2
[49] = tested on: BT-549
[50] = tested on: T47D
[51] = tested on: SF-268
[52] = tested on: NCI-H522
[53] = tested on: UO-31
[54] = tested on: MDA-MB-231
[55] = tested on: A549
[56] = tested on: SF-539
[57] = tested on: ACHN
[58] = tested on: A498
[59] = tested on: Malme-3M

O=C1OC(c2ccccc2)N/C1=C\c1ccc2c(c1)OCO2 (stereo unspecified)
GI50 [1]: > 100 µM (inactive)
GI50 [2]: 48.6 µM (inactive)
GI50 [3]: > 100 µM (inactive)
GI50 [4]: > 100 µM (inactive)
GI50 [5]: > 88.1 µM (inactive)
GI50 [6]: > 100 µM (inactive)
GI50 [7]: 53.3 µM (inactive)
GI50 [8]: > 100 µM (inactive)
GI50 [9]: > 100 µM (inactive)
GI50 [10]: > 100 µM (inactive)
GI50 [11]: > 75.9 µM (inactive)
GI50 [12]: > 100 µM (inactive)
GI50 [13]: 43.5 µM (inactive)
GI50 [14]: > 63.1 µM (inactive)
GI50 [15]: > 100 µM (inactive)
GI50 [16]: > 100 µM (inactive)
GI50 [17]: > 100 µM (inactive)
GI50 [18]: 46.7 µM (inactive)
GI50 [19]: > 100 µM (inactive)
GI50 [20]: 0.219 µM (active)
GI50 [21]: > 56.8 µM (inactive)
GI50 [22]: > 55.8 µM (inactive)
GI50 [23]: > 100 µM (inactive)
GI50 [24]: 33.6 µM (inactive)
GI50 [25]: > 100 µM (inactive)
GI50 [26]: 54.2 µM (inactive)
GI50 [27]: > 52.2 µM (inactive)
GI50 [28]: 98.9 µM (inactive)
GI50 [29]: 79.3 µM (inactive)
GI50 [30]: > 100 µM
GI50 [31]: 59.3 µM (inactive)
GI50 [32]: 28.1 µM (inactive)
GI50 [33]: > 100 µM (inactive)
GI50 [34]: > 100 µM (inactive)
GI50 [35]: > 74 µM (inactive)
GI50 [36]: > 100 µM (inactive)
GI50 [37]: > 100 µM (inactive)
GI50 [38]: > 100 µM (inactive)
GI50 [39]: 72.9 µM (inactive)
GI50 [40]: 25.2 µM (inactive)
GI50 [41]: > 100 µM (inactive)
GI50 [42]: > 100 µM (inactive)
GI50 [43]: 87.5 µM (inactive)
GI50 [44]: 36.7 µM (inactive)
GI50 [45]: 34 µM (inactive)
GI50 [46]: > 100 µM (inactive)
GI50 [47]: > 100 µM (inactive)
GI50 [48]: > 77.1 µM (inactive)
GI50 [49]: > 100 µM (inactive)
GI50 [50]: > 100 µM (inactive)
GI50 [51]: > 100 µM (inactive)
GI50 [52]: 35.6 µM (inactive)
GI50 [53]: > 100 µM (inactive)
GI50 [54]: > 100 µM (inactive)
GI50 [55]: > 100 µM (inactive)
GI50 [56]: 29.4 µM (inactive)
GI50 [57]: > 100 µM (inactive)

Cc1c(CN2CCN(C)CC2)c(CN2CCN(C)CC2)c(C)n1-c1ccc(Cl)cc1
GI50 [1]: 18.2 µM (inactive)
GI50 [2]: 31.2 µM (inactive)
GI50 [3]: > 100 µM (inactive)
GI50 [58]: 13.6 µM (inactive)
GI50 [4]: 39.5 µM (inactive)
GI50 [5]: 54.2 µM (inactive)
GI50 [6]: 16.7 µM (inactive)
GI50 [8]: 27.7 µM (inactive)
GI50 [9]: > 100 µM (inactive)
GI50 [10]: 20.4 µM (inactive)
GI50 [11]: 21 µM (inactive)
GI50 [12]: 17.1 µM (inactive)
GI50 [13]: 19.9 µM (inactive)
GI50 [14]: 30.3 µM (inactive)
GI50 [15]: 50.7 µM (inactive)
GI50 [16]: 14.2 µM (inactive)
GI50 [17]: 17.5 µM (inactive)
GI50 [18]: 34 µM (inactive)
GI50 [21]: 35.4 µM (inactive)
GI50 [22]: 16.8 µM (inactive)
GI50 [23]: 29.4 µM (inactive)
GI50 [24]: 19.3 µM (inactive)
GI50 [25]: 72.4 µM (inactive)
GI50 [26]: 39.7 µM (inactive)
GI50 [27]: > 100 µM (inactive)
GI50 [28]: 25.9 µM (inactive)
GI50 [29]: 94.8 µM (inactive)
GI50 [30]: 47 µM
GI50 [31]: 40.2 µM (inactive)
GI50 [32]: 17.4 µM (inactive)
GI50 [33]: 16.9 µM (inactive)
GI50 [34]: > 100 µM (inactive)
GI50 [59]: 20.9 µM (inactive)
GI50 [35]: 14.6 µM (inactive)
GI50 [36]: 53.7 µM (inactive)
GI50 [37]: > 100 µM (inactive)
GI50 [38]: 54.2 µM (inactive)
GI50 [39]: 24 µM (inactive)
GI50 [40]: 47.2 µM (inactive)
GI50 [41]: 21.2 µM (inactive)
GI50 [42]: 23.4 µM (inactive)
GI50 [43]: 19.5 µM (inactive)
GI50 [44]: 79.1 µM (inactive)
GI50 [45]: 33.6 µM (inactive)
GI50 [46]: 25.1 µM (inactive)
GI50 [47]: 25.1 µM (inactive)
GI50 [48]: 21.3 µM (inactive)
GI50 [49]: 45 µM (inactive)
GI50 [50]: 19.2 µM (inactive)
GI50 [51]: 44.4 µM (inactive)
GI50 [52]: 20.5 µM (inactive)
GI50 [53]: 26.9 µM (inactive)
GI50 [54]: 68.5 µM (inactive)
GI50 [55]: 30.4 µM (inactive)
GI50 [57]: 96.8 µM (inactive)

COc1ccccc1-n1c(=O)n(C)c(=O)n1C(C)(C)C
GI50 [1]: > 100 µM (inactive)
GI50 [3]: > 100 µM (inactive)
GI50 [58]: > 100 µM (inactive)
GI50 [4]: > 100 µM (inactive)
GI50 [5]: > 100 µM (inactive)
GI50 [6]: > 100 µM (inactive)
GI50 [7]: > 100 µM (inactive)
GI50 [8]: > 100 µM (inactive)
GI50 [9]: > 100 µM (inactive)
GI50 [10]: > 100 µM (inactive)
GI50 [11]: > 100 µM (inactive)
GI50 [12]: > 100 µM (inactive)
GI50 [13]: > 100 µM (inactive)
GI50 [14]: > 100 µM (inactive)
GI50 [15]: > 100 µM (inactive)
GI50 [16]: > 100 µM (inactive)
GI50 [17]: > 100 µM (inactive)
GI50 [18]: > 100 µM (inactive)
GI50 [20]: > 100 µM (inactive)
GI50 [22]: > 100 µM (inactive)
GI50 [23]: > 100 µM (inactive)
GI50 [24]: > 100 µM (inactive)
GI50 [25]: > 100 µM (inactive)
GI50 [26]: 0.288 µM (active)
GI50 [27]: > 100 µM (inactive)
GI50 [28]: > 100 µM (inactive)
GI50 [29]: > 100 µM (inactive)
GI50 [30]: > 100 µM
GI50 [31]: > 100 µM (inactive)
GI50 [32]: > 100 µM (inactive)
GI50 [33]: > 100 µM (inactive)
GI50 [34]: > 100 µM (inactive)
GI50 [59]: > 100 µM (inactive)
GI50 [35]: > 100 µM (inactive)
GI50 [36]: > 100 µM (inactive)
GI50 [37]: > 100 µM (inactive)
GI50 [38]: > 100 µM (inactive)
GI50 [39]: > 100 µM (inactive)
GI50 [40]: > 100 µM (inactive)
GI50 [42]: > 100 µM (inactive)
GI50 [43]: > 100 µM (inactive)
GI50 [44]: > 100 µM (inactive)
GI50 [45]: > 100 µM (inactive)
GI50 [46]: > 100 µM (inactive)
GI50 [47]: > 100 µM (inactive)
GI50 [48]: > 100 µM (inactive)
GI50 [49]: > 100 µM (inactive)
GI50 [50]: > 100 µM (inactive)
GI50 [51]: > 100 µM (inactive)
GI50 [52]: 29.3 µM (inactive)
GI50 [53]: > 100 µM (inactive)
GI50 [54]: > 100 µM (inactive)
GI50 [55]: > 100 µM (inactive)
GI50 [56]: > 100 µM (inactive)

Source: ChEMBL document CHEMBL1201862, “PubChem BioAssay data set” (2004)
